Experimental data as given in patent publication US6512007B1, “Use of galiella lactone” (Bayer Aktiengesellschaft, priority 2000, dated 2003).
pIC50: −log10 of the molar value.

Columns and labels:
[1] = system: IL-6-induced and Stat3-mediated SEAP synthesis; experiment: Inhibition of IL-6- and Stat3-mediated SEAP reporter gene expression in HepG2 cells; format: cell-based; settings: Homo sapiens; HepG2, induction with IL-6 10 ng/ml, 24 h; read-out: concentration for half-maximal SEAP synthesis inhibition (IC50)
Method: The following bioassay was carried out for fundamental exemplary experiments for detecting the inhibition of IL-6- and Stat3-mediated gene expression:
The initial vector used was the vector pTK/SEAP (Biochem. Biophys. Res. Commun., 1996, 226: 214-21) (see FIG. 1) which contains the gene of secreted alkaline phosphatase (SEAP) as reporter gene. This vector was linearized with the restriction enzyme Nhel and then dephosphorylated. The following oligonucleotides
which contain a binding site for Stat3 and Stat1 proteins (cf. Proc. Natl. Acad. Sci. USA, 1995, 92: 3041-5) were phosphorylated, ligated and precipitated with ethanol. […]
The HepG2 cells were cultivated in a moist atmosphere with 5% CO2 at 37° C. in 50 ml of DMEM (Gibco BRL, Life Technologies GmbH. Dieselstr, 5, 76344 Eggenstein) with 10% fetal calf serum, and penicillin/streptomycin (100 iu) in 600 ml cell culture bottles. […] The cell count was determined using a counting chamber and was adjusted to 6-8×10^6 cells/ml. […]
Cytotoxic effects of the compounds on the cells were investigated by microscopy after 24 h. Likewise after 24 h. the SEAP activity was determined using the Phospha-Light™ chemoluminescence assay (Perkins-Elmer Applied Biosystems, Langen) and, under the chosen conditions, is directly proportional to the SEAP concentration in the analysed sample. […]

[2] = biological target: T1, activated Stat3 dimers (Homo sapiens, UniProt P40763); experiment: Electrophoretic mobility shift assay: DNA binding of activated Stat3 dimers to m67SIE probe; settings: 16 ng/ml (82 nM), HepG2
T1 construct: Probe used: m67SIE, induction time 20 minutes: cell line: HepG2; endogenous in cells; host or cells: HepG2 (cell extract)
T1 sequence (P40763 2-770 limits assumed): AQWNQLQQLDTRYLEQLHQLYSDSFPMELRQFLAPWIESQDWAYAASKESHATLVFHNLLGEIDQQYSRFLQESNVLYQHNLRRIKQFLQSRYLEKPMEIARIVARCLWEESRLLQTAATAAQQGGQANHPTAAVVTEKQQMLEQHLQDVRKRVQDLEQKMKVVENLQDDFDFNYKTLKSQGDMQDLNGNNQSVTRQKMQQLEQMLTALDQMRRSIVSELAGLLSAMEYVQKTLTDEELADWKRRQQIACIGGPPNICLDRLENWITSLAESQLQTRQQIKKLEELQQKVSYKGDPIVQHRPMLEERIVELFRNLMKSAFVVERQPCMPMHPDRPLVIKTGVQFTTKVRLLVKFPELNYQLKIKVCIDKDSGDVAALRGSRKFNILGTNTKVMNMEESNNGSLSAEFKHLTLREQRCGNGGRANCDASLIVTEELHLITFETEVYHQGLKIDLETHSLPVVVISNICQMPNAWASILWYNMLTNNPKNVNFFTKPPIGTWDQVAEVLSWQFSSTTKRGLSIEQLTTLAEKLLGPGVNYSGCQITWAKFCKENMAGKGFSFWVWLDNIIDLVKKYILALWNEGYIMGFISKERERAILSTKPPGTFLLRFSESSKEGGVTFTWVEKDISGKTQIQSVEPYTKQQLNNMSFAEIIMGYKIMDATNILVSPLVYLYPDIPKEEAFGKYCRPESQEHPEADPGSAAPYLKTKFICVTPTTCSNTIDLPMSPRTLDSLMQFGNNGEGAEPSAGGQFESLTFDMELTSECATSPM
Description: The DNA binding of activated Stat3 dimers to their binding sites in the promoters of the target genes is the basic requirement for transcriptional activation of these genes. At the same time, this step is specific for Stat3, i.e. inhibition of this step would result in specific inhibition of IL-6-induced and Stat3-mediated expression of the target genes without simultaneously affecting other signal cascades. The effect of the various compounds on the DNA binding ability of the phosphorylated and thus activated Stat3 dimers was analysed by carrying out electrophoretic mobility shift assays (EMSAs, gel shift assays).
The procedure was as described in Nature, 1993, 362: 79-83 and Mol. Cell Biol, 1998, 18: 2108-17. The DNA probe used was the ^32P-labelled, double-stranded oligonucleotide with the m67SIE recognition sequence (S2) (wild-type) (cf. EMBO J. 1995, 14: 1421-9)
It was possible to show with control mixtures in which the induced control was preincubated with phospho-Stat3 (tyrosine 705)-specific antibodies that it is Stat3 phosphorylated on the tyrosine 705 residue which binds to the m67SIE probe (see FIG. 6).
Effect of galiella lactone on the binding of activated Stat3 dimers to their DNA recognition sequence. Probe used: m67SIE, induction time 20 minutes: cell line: HepG2.

`C[C@H]1C=C2C(=O)O[C@H]3CC[C@@H](C1)[C@@]23O` [galiella lactone] was tested, and the pIC50 [1] was 7.00 to 7.30 and the “binding of the activated Stat3 dimers to their recognition sequence” value [2] was “completely inhibits”.
